Assay results from PubChem BioAssay AID1794831.

Biological target: Solute carrier family 2, facilitated glucose transporter member 9 (Homo sapiens) (UniProt Q9NRM0)
Test: SLC2A9 substrate-evoked membrane potential change, dose response, cell-based, membrane potential dye, HEK-293, SLC2A9 overexpression (AID 1794831)
Conditions: HEK-293 SLC2A9 OE, FLIPR membrane potential dye

Chain of Solute carrier family 2, facilitated glucose transporter member 9 (Homo sapiens) (Q9NRM0 whole entry, looked up): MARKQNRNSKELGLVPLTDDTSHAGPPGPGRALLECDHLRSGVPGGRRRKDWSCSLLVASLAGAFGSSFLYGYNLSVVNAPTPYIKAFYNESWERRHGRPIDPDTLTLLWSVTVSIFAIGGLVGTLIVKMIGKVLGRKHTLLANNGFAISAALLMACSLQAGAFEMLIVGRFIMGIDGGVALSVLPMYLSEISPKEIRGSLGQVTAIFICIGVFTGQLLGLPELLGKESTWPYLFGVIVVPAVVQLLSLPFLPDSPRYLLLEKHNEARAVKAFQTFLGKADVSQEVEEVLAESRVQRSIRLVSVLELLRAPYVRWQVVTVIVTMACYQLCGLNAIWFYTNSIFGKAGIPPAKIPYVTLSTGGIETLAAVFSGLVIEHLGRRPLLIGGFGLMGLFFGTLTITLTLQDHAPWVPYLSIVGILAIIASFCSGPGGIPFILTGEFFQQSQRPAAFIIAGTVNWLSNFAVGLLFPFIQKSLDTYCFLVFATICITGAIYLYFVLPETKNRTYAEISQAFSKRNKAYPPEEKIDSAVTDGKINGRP

Row | SMILES | EC50
1 | O=C(O)c1cc(=O)[nH]c(=O)[nH]1 | 1000 µM
2 | O=c1[nH]c(=O)c2[nH]c(=O)[nH]c2[nH]1 | 300 µM
